The target of this test is thyroid hormone receptor β (TRβ) (Homo sapiens, UniProt P10828). The test is described as follows: biochemical.

Each structure is given as a SMILES string.

Sequence of thyroid hormone receptor β (TRβ) (P10828 82-456): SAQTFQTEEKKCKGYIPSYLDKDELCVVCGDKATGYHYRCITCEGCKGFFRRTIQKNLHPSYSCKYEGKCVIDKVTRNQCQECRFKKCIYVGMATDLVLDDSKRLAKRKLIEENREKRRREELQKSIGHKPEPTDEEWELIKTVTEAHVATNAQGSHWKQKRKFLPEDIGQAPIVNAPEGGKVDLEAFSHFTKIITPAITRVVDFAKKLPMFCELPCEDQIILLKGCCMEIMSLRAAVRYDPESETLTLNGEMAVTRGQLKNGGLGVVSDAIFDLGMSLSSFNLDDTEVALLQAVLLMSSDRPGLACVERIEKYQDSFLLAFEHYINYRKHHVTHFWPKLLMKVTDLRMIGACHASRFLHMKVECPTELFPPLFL
Sequence of thyroid hormone receptor β (TRβ) (P19793 whole entry partner): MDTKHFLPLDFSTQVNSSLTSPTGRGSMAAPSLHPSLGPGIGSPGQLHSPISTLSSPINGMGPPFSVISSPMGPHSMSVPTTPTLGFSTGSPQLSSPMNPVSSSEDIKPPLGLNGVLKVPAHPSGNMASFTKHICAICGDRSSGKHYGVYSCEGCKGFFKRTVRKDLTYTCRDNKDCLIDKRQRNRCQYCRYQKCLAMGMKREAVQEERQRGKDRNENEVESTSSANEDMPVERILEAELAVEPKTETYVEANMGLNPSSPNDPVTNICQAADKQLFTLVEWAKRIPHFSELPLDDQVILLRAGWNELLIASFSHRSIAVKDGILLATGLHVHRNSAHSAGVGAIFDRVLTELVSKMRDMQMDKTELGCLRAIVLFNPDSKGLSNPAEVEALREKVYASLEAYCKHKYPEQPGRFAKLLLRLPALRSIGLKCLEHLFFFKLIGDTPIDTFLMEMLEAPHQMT
Sequence of thyroid hormone receptor β (TRβ) (Q60974 2057-2453 partner): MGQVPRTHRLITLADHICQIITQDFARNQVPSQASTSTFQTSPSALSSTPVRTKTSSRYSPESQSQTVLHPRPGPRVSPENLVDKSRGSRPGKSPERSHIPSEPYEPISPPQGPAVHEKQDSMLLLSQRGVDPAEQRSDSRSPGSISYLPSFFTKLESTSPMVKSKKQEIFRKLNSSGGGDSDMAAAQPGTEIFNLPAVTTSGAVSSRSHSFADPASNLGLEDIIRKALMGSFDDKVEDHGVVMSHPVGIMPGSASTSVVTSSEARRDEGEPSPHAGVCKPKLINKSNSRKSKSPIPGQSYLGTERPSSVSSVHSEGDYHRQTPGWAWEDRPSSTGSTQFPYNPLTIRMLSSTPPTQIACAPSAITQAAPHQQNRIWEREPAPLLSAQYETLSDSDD
Sequence of thyroid hormone receptor β (TRβ) (Q9Y6Q9 627-829 partner): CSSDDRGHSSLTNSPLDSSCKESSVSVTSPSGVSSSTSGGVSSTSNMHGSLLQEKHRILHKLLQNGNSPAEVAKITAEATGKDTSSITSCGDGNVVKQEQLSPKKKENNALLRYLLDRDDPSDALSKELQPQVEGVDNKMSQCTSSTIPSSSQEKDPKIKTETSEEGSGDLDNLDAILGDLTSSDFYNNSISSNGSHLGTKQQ

For `Cc1cc(OCC(=O)O)cc(C)c1Cc1cc(C#Cc2ccc([N+](=O)[O-])cc2)c(O)c(C(C)C)c1` [NH-3, {4-[4-hydroxy-3’-isopropyl-5-(4-nitrophenylethynyl)benzyl]-3,5-dimethylphenoxy}acetic acid], 1.09 ± 0.08 µM corresponded to half-maximal inhibition (IC50).

In general, IC50 refers to the concentration needed to halve the response being measured. A low value points to higher potency.

Values taken from publication PMC2701686 (Analytical biochemistry, 2008).
